Several values for one entry are separate records, joined by “and”; a condition that tells them apart may be missing. Identical values can stand only once. Like-named read-outs stand apart in the source and are kept apart here.
Assay: Pharmacokinetic (toxicokinetic) study, plasma
Format: in vivo, Sprague Dawley rats
Conditions: for RAUC (RATIO): Day 3 AUC(0-t) / Day 1 AUC(0-t) / Cmax / Tmax / half-life / clearance / Vd / AUC(0-t): plasma; for Cmax / Tmax / half-life / clearance / Vd / AUC(0-t): Sprague Dawley, rat
Description: For the PK study of AVR-48 in rats, a formulation consisting of 10% DMSO, 20% tetraglycol, 20% PEG 400, and 50% sterile water was developed. Each preparation was made on the same day of dose administration. The components of the control/vehicle item formulation were added sequentially. Briefly, the appropriate volume of DMSO (10% of the final volume) was measured into a container followed by gradual addition of PEG 400 (20% of the final volume) and sterile water (50% of the final volume) to make up the volume and mixed thoroughly till completely dissolved. The final solution was filtered through a 0.22 µm membrane filter (Millipore Millex® GP PES, St. Louis, MO, USA) into a sterile vial. All PK studies were also conducted with 8–10-week-old male and female Sprague Dawley rats. An additional nine animals/sex/dose were used for PK analysis and blood (approximately 0.3 mL each) was collected from each rat on days 1 and 3 of the treatment period at time points of 5, 30, 60, 90, 120, and 180 min, and 6, 12 h, and 24 h post dose that were randomized to provide a total of three samples/sex for each time point. Samples were collected by jugular venipuncture and the samples were collected into tubes containing the anticoagulant, K3EDTA. The collection of BALF was limited to the terminal time points of 6 h, 12 h, and 24 h. AVR-48 concentrations in the blood and BALF were determined using LC/MS/MS analysis developed in house. PK parameters were estimated using Phoenix pharmacokinetic software (Certara, Princeton, NJ, USA) using a non-compartmental approach consistent with the IV bolus injection.

CC(=O)N[C@H]1[C@H](Oc2ccc([N+](=O)[O-])cc2)O[C@H](CO)[C@@H](O)[C@@H]1O [AVR-48, N-((2S,3R,4R,5S,6R)-4,5-dihydroxy-6-(hydroxymethyl)-2-(4-nitrophenoxy)tetrahydro-2H-pyran-3-yl) acetamide]
RAUC (RATIO): Day 3 AUC(0-t) / Day 1 AUC(0-t) (40 mg/kg IV, Female): 0.679 | RAUC (RATIO): Day 3 AUC(0-t) / Day 1 AUC(0-t) (40 mg/kg IV, Male): 0.928 | RAUC (RATIO): Day 3 AUC(0-t) / Day 1 AUC(0-t) (80 mg/kg IV, Female): 0.953 | RAUC (RATIO): Day 3 AUC(0-t) / Day 1 AUC(0-t) (80 mg/kg IV, Male): 0.777 | Cmax (iv, 40 mg/kg, 40 mg/kg dose IV, read-out: Cmax): 364 ± 9.36 µM | Cmax (iv, 80 mg/kg, 80 mg/kg dose IV, read-out: Cmax): 749.3 ± 5.25 µM | Cmax (other: IV or IP, 10 mg/kg, single IV or IP 10 mg/kg dose, extrapolated from Cmax at 40 mg/kg, read-out: Cmax in plasma expected for 10 mg/kg): ~91 µM | Tmax (Day 1, 40 mg/kg IV, Female): 5 min | Tmax (Day 1, 80 mg/kg IV, Female): 5 min | Tmax (Day 1, 80 mg/kg IV, Male): 5 min | Tmax (Day 3, 40 mg/kg IV, Male): 5 min | AUC(0-t) dose dependence (between 40 and 80 mg/kg/day dose groups): increased in a dose-dependent manner | half-life (both sexes, intravenous, 80 mg/kg, both doses (40 and 80 mg/kg), read-out: half-life (T1/2)): 1.4 to 2.34 h | clearance (both sexes, intravenous, day 1 and day 3 of dosing, read-out: clearance (CL)): 12.4 to 18.3 mL/min/kg | Vd (both sexes, intravenous, day 1 and day 3 of dosing, read-out: volume of distribution (Vd)): 1.51 to 3.72 L/kg | AUC(0-t) (female, iv, 40 mg/kg, Day 1, 40 mg/kg IV, Female): 53900 ± 2860 ng·h/mL | clearance (female, iv, 40 mg/kg, Day 1, 40 mg/kg IV, Female, read-out: Cl (converted)): 12.4 mL/min/kg | Cmax (female, iv, 40 mg/kg, Day 1, 40 mg/kg IV, Female, read-out: Cmax ± SE): 129000 ng/mL and 377 µM | half-life (female, iv, 40 mg/kg, Day 1, 40 mg/kg IV, Female, read-out: T1/2 (converted)): 1.4 h | Vd (female, iv, 40 mg/kg, Day 1, 40 mg/kg IV, Female, read-out: Vd): 1.51 L/kg | AUC(0-t) (female, iv, 40 mg/kg, Day 3, 40 mg/kg IV, Female): 36600 ng·h/mL | clearance (female, iv, 40 mg/kg, Day 3, 40 mg/kg IV, Female, read-out: Cl (converted)): 18.3 mL/min/kg | Cmax (female, iv, 40 mg/kg, Day 3, 40 mg/kg IV, Female, read-out: Cmax ± SE): 90400 ng/mL and 264 µM | half-life (female, iv, 40 mg/kg, Day 3, 40 mg/kg IV, Female, read-out: T1/2 (converted)): 2.34 h | Vd (female, iv, 40 mg/kg, Day 3, 40 mg/kg IV, Female, read-out: Vd): 3.72 L/kg | AUC(0-t) (female, iv, 80 mg/kg, Day 1, 80 mg/kg IV, Female): 101000 ng·h/mL | clearance (female, iv, 80 mg/kg, Day 1, 80 mg/kg IV, Female, read-out: Cl (converted)): 13.4 mL/min/kg | Cmax (female, iv, 80 mg/kg, Day 1, 80 mg/kg IV, Female, read-out: Cmax ± SE): 237000 ng/mL and 692 µM | half-life (female, iv, 80 mg/kg, Day 1, 80 mg/kg IV, Female, read-out: T1/2 (converted)): 1.45 h | Vd (female, iv, 80 mg/kg, Day 1, 80 mg/kg IV, Female, read-out: Vd): 1.68 L/kg | AUC(0-t) (female, iv, 80 mg/kg, Day 3, 80 mg/kg IV, Female): 95800 ng·h/mL | clearance (female, iv, 80 mg/kg, Day 3, 80 mg/kg IV, Female, read-out: Cl (converted)): 14 mL/min/kg | Cmax (female, iv, 80 mg/kg, Day 3, 80 mg/kg IV, Female, read-out: Cmax ± SE): 227000 ng/mL and 663 µM | half-life (female, iv, 80 mg/kg, Day 3, 80 mg/kg IV, Female, read-out: T1/2 (converted)): 2.05 h | Vd (female, iv, 80 mg/kg, Day 3, 80 mg/kg IV, Female, read-out: Vd): 2.48 L/kg | AUC(0-t) (male, iv, 40 mg/kg, Day 1, 40 mg/kg IV, Male): 49800 ± 962 ng·h/mL | clearance (male, iv, 40 mg/kg, Day 1, 40 mg/kg IV, Male, read-out: Cl (converted)): 13.4 mL/min/kg | Cmax (male, iv, 40 mg/kg, Day 1, 40 mg/kg IV, Male, read-out: Cmax ± SE): 351 µM and 120000 ng/mL | half-life (male, iv, 40 mg/kg, Day 1, 40 mg/kg IV, Male, read-out: T1/2 (converted)): 1.64 h | Vd (male, iv, 40 mg/kg, Day 1, 40 mg/kg IV, Male, read-out: Vd): 1.91 L/kg | AUC(0-t) (male, iv, 40 mg/kg, Day 3, 40 mg/kg IV, Male): 46200 ng·h/mL | clearance (male, iv, 40 mg/kg, Day 3, 40 mg/kg IV, Male, read-out: Cl (converted)): 14.5 mL/min/kg | Cmax (male, iv, 40 mg/kg, Day 3, 40 mg/kg IV, Male, read-out: Cmax ± SE): 115000 ng/mL and 336 µM | half-life (male, iv, 40 mg/kg, Day 3, 40 mg/kg IV, Male, read-out: T1/2 (converted)): 2.16 h | Vd (male, iv, 40 mg/kg, Day 3, 40 mg/kg IV, Male, read-out: Vd): 2.71 L/kg | AUC(0-t) (male, iv, 80 mg/kg, Day 1, 80 mg/kg IV, Male): 118000 ng·h/mL | clearance (male, iv, 80 mg/kg, Day 1, 80 mg/kg IV, Male, read-out: Cl (converted)): 11.3 mL/min/kg | Cmax (male, iv, 80 mg/kg, Day 1, 80 mg/kg IV, Male, read-out: Cmax ± SE): 276000 ng/mL and 806 µM | half-life (male, iv, 80 mg/kg, Day 1, 80 mg/kg IV, Male, read-out: T1/2 (converted)): 2.05 h | Vd (male, iv, 80 mg/kg, Day 1, 80 mg/kg IV, Male, read-out: Vd): 2.02 L/kg | AUC(0-t) (male, iv, 80 mg/kg, Day 3, 80 mg/kg IV, Male): 91500 ng·h/mL | clearance (male, iv, 80 mg/kg, Day 3, 80 mg/kg IV, Male, read-out: Cl (converted)): 14.7 mL/min/kg | Cmax (male, iv, 80 mg/kg, Day 3, 80 mg/kg IV, Male, read-out: Cmax ± SE): 190000 ng/mL and 555 µM | half-life (male, iv, 80 mg/kg, Day 3, 80 mg/kg IV, Male, read-out: T1/2 (converted)): 1.42 h | Vd (male, iv, 80 mg/kg, Day 3, 80 mg/kg IV, Male, read-out: Vd): 1.8 L/kg | accumulation (three days of twice daily administration): no accumulation
